Test results from publication PMC8501799, “Constitutive signal bias mediated by the human GHRHR splice variant 1” (Proceedings of the National Academy of Sciences of the …, 2021).

Tests used:
PC3 cells = assay: cAMP accumulation in prostate cancer cells; assay type: cell-based, human; settings: concentration-response, Fig. 1E; PC3 low expression of both
Description: (§1) Spodoptera frugiperda (Sf9) insect cells (Expression Systems) were grown in ESF 921 serum-free medium (Expression Systems) at 27 °C and 120 rpm. HEK293T cells were purchased from American Type Culture Collection (ATCC), cultured in Dulbecco’s modified Eagle’s medium (DMEM; Life Technologies), supplemented with 10% fetal bovine serum (FBS; Gibco), and maintained in a humidified chamber with 5% CO2 at 37 °C. The PC3 prostate cancer cell line (ATCC) was cultured in F12 medium supplemented with 10% FBS and maintained in a humidified chamber with 5% CO2 at 37 °C. 22Rv1 and LNCaP human prostate cancer cells (ATCC) were cultured in Roswell Park Memorial Institute (RPMI)-1640 medium supplemented with 10% FBS and maintained in a humidified atmosphere containing 5% CO2 at 37 °C.
(§2) GHRH-stimulated cAMP accumulation was measured by a LANCE Ultra cAMP kit (PerkinElmer). Briefly, HEK293T cells (24 h after transfection with SV1 or GHRHR) or prostate cancer cells were digested by 0.2% (wt/vol) EDTA and washed once with Dulbecco’s phosphate-buffered saline (PBS). Cells were then resuspended with stimulation buffer (Hanks’ balanced salt solution [HBSS] supplemented with 5 mM HEPES, 0.5 mM IBMX, and 0.1% [wt/vol] bovine serum albumin [BSA], pH 7.4) to a density of 0.6 million cells per milliliter and added to 384-well white plates (3,000 cells per well). […] The reaction was stopped by adding 5 μL Eu-cAMP tracer and 5 μL ULight-anti-cAMP. After 1 h RT incubation, TR-FRET signals (excitation: 320 nm, emission: 615 and 665 nm) were measured by an Envision plate reader (PerkinElmer). cAMP concentrations were interpolated by a standard curve.

22Rv1 cells = assay: cAMP accumulation in prostate cancer cells; assay type: cell-based, human; settings: concentration-response, Fig. 1E; 22Rv1 express high levels of SV1
Description: as §1, §2

LNCaP cells = assay: cAMP accumulation in prostate cancer cells; assay type: cell-based, human; settings: concentration-response, Fig. 1E; LNCaP express high levels of GHRHR
Description: as §1, §2

GHRHR ΔECD = assay: cAMP accumulation; assay type: cell-based, human
Description: as §2
(§3) All functional study data were analyzed using Prism 7 (GraphPad) and presented as means ± SEM from at least three independent experiments. Concentration-response curves were evaluated with a three-parameter logistic equation. The significance was determined with either two-tailed Student’s t test or one-way ANOVA, and P < 0.05 is considered statistically significant.
(§4) Table S2. Effects of residue mutation or truncation in the ECD of GHRHR on GHRH-induced cAMP […]
(§5) Mutant pEC50 Emax (% WT GHRHR) expression ΔLog (τ/KA) […]
(§6) cAMP accumulation data were analyzed using a three-parameter logistic equation to determine pEC50 and Emax values. pEC50 is the negative logarithm of the molar concentration of agonist that induced half the maximal response. Emax for mutants is expressed as a percentage of the WT GHRHR. Data were analyzed by nonlinear regression using the operational model equation to determine t he logR values (logτ/KA, i.e., logarithm of the transduction ratio). τ is the effi cacy value of the agonist and was corrected by cell surface expression of the receptor. KA is dissociation constant. Changes in transduction ratio (ΔlogR) were calculated to determine the relative effectiveness of the mutants. All values are means ± S.E.M. of at le ast three ind ep en dent experiments (n = 3-5) conducted in quadruplicate. Statistical analysis was carried out by comparing the control responses in the WT GHRHR. **, P < 0.01 and ***, P < 0.001, determined by one-way

SV1 = biological target: T1, SV1 (Homo sapiens, UniProt Q02643); assay: cAMP accumulation; assay type: cell-based; settings: mean ± SEM; for Emax: HEK-293T, HEK293T; for ΔLog (τ/KA): operational model, τ corrected by cell surface expression
T1 sequence (Q02643 90-423 limits assumed): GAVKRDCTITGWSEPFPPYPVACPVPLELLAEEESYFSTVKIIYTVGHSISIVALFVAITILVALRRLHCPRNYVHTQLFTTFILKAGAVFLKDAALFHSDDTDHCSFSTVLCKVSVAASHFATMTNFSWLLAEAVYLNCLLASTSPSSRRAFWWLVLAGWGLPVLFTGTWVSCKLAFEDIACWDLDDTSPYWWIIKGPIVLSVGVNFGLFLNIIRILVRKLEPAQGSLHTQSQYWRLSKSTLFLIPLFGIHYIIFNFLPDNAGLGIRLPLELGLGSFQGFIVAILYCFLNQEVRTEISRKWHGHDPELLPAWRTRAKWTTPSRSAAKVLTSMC
Description: as §2, §3, §4, §5
as §6, with “one-way […]” for “one-way”
Table S4. Effects of residue mutation in the ligand-binding pocket of SV1 on GHRH-induced cAMP […]
Mutant pEC50 Emax Cell surface expression ΔLog (τ/KA) […]
effectiveness of the mutants. All values are means ± S.E.M. of four independent experiments (n = 4) conducted in quadruplicate. Statistical analysis was carried out by comparing the control responses in the WT-SV1. *, P < 0.05, **, P < 0.01 and ***, P < 0.001, determined by one-way

SMILES: CC[C@H](C)[C@H](NC(=O)[C@H](C)NC(=O)[C@H](CC(=O)O)NC(=O)[C@H](C)NC(=O)[C@@H](N)Cc1ccc(O)cc1)C(=O)N[C@@H](Cc1ccccc1)C(=O)N[C@H](C(=O)N[C@@H](CC(N)=O)C(=O)N[C@@H](CO)C(=O)N[C@@H](Cc1ccc(O)cc1)C(=O)N[C@@H](CCCNC(=N)N)C(=O)N[C@@H](CCCCN)C(=O)N[C@H](C(=O)N[C@@H](CC(C)C)C(=O)NCC(=O)N[C@@H](CCC(N)=O)C(=O)N[C@@H](CC(C)C)C(=O)N[C@@H](CO)C(=O)N[C@@H](C)C(=O)N[C@@H](CCCNC(=N)N)C(=O)N[C@@H](CCCCN)C(=O)N[C@@H](CC(C)C)C(=O)N[C@@H](CC(C)C)C(=O)N[C@@H](CCC(N)=O)C(=O)N[C@@H](CC(=O)O)C(=O)N[C@H](C(=O)N[C@@H](CCSC)C(=O)N[C@@H](CO)C(=O)N[C@@H](CCCNC(=N)N)C(=O)N[C@@H](CCC(N)=O)C(=O)N[C@@H](CCC(N)=O)C(=O)NCC(=O)N[C@@H](CCC(=O)O)C(=O)N[C@@H](CO)C(=O)N[C@@H](CC(N)=O)C(=O)N[C@@H](CCC(N)=O)C(=O)N[C@@H](CCC(=O)O)C(=O)N[C@@H](CCCNC(=N)N)C(=O)NCC(=O)N[C@@H](C)C(=O)N[C@@H](CCCNC(=N)N)C(=O)N[C@@H](C)C(=O)N[C@@H](CCCNC(=N)N)C(=O)N[C@@H](CC(C)C)C(N)=O)[C@@H](C)CC)C(C)C)[C@@H](C)O [GHRH, growth hormone–releasing hormone]
- cAMP response (PC3 cells): either markedly reduced or marginal cAMP responses
- cAMP response (22Rv1 cells): either markedly reduced or marginal cAMP responses
- cAMP response (LNCaP cells): strongest cAMP response
- cAMP responses after deletion of the entire ECD (GHRHR ΔECD; HEK293T, Fig. 1B): diminished cAMP responses
- pEC50 of cAMP accumulation (GHRHR ΔECD; Table S2, HEK293T, LANCE Ultra cAMP, 30 min RT, 0.5 mM IBMX, mean ± SEM, n = 3-5 in quadruplicate): 5.53 ± 0.07
- Emax of cAMP accumulation (GHRHR ΔECD; Table S2, HEK293T, mean ± SEM, n = 3-5 in quadruplicate): 111.27 ± 3.65 % WT GHRHR
- ΔLog (τ/KA) (GHRHR ΔECD; Table S2, operational model, τ corrected by cell surface expression, relative to WT GHRHR, mean ± SEM): -4.55 ± 0.04
- Emax (SV1; Table S4, n = 4 in quadruplicate): 102 ± 2.28%
- Emax (SV1; Table S2, n = 3-5 in quadruplicate): 105 ± 2.2%
- ΔLog (τ/KA) (SV1; Table S2, relative to WT GHRHR): -2.98 ± 0.04
- ΔLog (τ/KA) (SV1; Table S4, n = 4): -3.93 ± 0.10
